{"source": "patent US7087620B2", "about": "“Liquid pharmaceutical formulations containing 3,7-diazabicyclo[3,3,1]nonane compounds and methods of treatment relating to anti-arrhythmic events” (Solvay Pharmaceuticals GmbH, priority 2002, dated 2006)", "test_system": "patients with atrial flutter", "experiment": "Placebo-controlled ascending dose study of intravenous tedisamil: conversion to normal sinus rhythm, patients with atrial flutter", "type": "in vivo, human", "settings": "for Conversion to NSR at any time within 2.5 hrs after the start of infusion (patients converted out of total) / Conversion to NSR at any time within 2.5 hrs after the start of infusion (percentage of patients) / Conversion to NSR at any time within 2.5 hrs and remaining in NSR until 2.5 hrs after the start of infusion (patients out of total) / Conversion to NSR at any time within 2.5 hrs and remaining in NSR until 2.5 hrs after the start of infusion (percentage of patients) / Conversion to NSR at any time within 2.5 hrs and remaining in NSR until 24 hrs after the start of infusion (patients out of total) / Conversion to NSR at any time within 2.5 hrs and remaining in NSR until 24 hrs after the start of infusion (percentage of patients) / Conversion to NSR at any time within 24 hrs after the start of infusion (patients out of total) / Conversion to NSR at any time within 24 hrs after the start of infusion (percentage of patients) / Conversion to NSR at any time within 24 hrs and remaining in NSR until 24 hrs after the start of infusion (patients out of total) / Conversion to NSR at any time within 24 hrs and remaining in NSR until 24 hrs after the start of infusion (percentage of patients): patients with atrial flutter; for Conversion to NSR at any time within 2.5 hrs after start of infusion (converted/total) / Conversion to NSR at any time within 2.5 hrs after start of infusion (%): Atrial Flutter, ITT patient sample, patients with DC cardioversion excluded", "procedure": "A Multi-Center, Double-Blind, Randomized, Placebo-Controlled, Sequential Ascending Dose Groups Study to evaluate the Efficacy and Safety of Intravenous Tedisamil in the Rapid Conversion to Normal Sinus Rhythm in Patients with Atrial Fibrillation or Flutter was performed.\n• Tedisamil (0.4 mg/kg body weight) • Tedisamil (0.6 mg/kg body weight) • Placebo • Dosages were given as a 30 minute intravenous infusion regimen. 1. Study Design\nThis multicenter trial was a double-blind, randomized, placebo-controlled, ascending dose groups study comparing the efficacy and safety of intravenous tedisamil treatment versus placebo in symptomatic patients with atrial fibrillation or flutter (>3 hours and <48 hours). The primary efficacy endpoint of this study was the termination of atrial fibrillation or flutter (for at least 60 seconds) within 2.5 hours after start of the infusion.\nFollowing screening and baseline assessments, eligible patients were randomized to tedisamil or placebo with a sequential dose escalation approach. In the first stage, patients received 0.4 mg tedisamil/kg body weight or placebo over a 30 minutes infusion period, with half the dose infused during the first 10 minutes and half the dose infused over the remaining 20 minutes. After interim safety evaluation, in the second stage, patients received 0.6 mg tedisamil/kg body weight or placebo, with the same infusion regimen.\nPatients were discharged from the telemetry unit 24 hours post infusion and safety follow up was to be obtained after 28 days. Blinded reviews of 12-lead ECGs (including 60 seconds rhythm strip) and 24 hour Holters to adjudicate the clinical endpoint (conversion to normal sinus rhythm) were performed centrally according to standard guidelines.\nTedisamil dihydrochloride, 0.4 mg/kg body weight, 0.6.mg/kg body weight was administered intravenously. The total infusion time was 30 minutes, with half the dose infused within 10 minutes, and half the dose infused within the remaining 20 minutes.\nThe percentage of patients converted to normal sinus rhythm (for at least 60 seconds) at any time within 2.5 hours after the initiation of the infusion of study drug.\n6.1.2 Secondary Efficacy • The percentage of patients converted to normal sinus rhythm (for at least 60 seconds) at any time within 2.5 hrs and remaining in sinus rhythm until 2.5 hours after initiation of the intravenous infusion of tedisamil versus placebo. • The percentage of patients converted to normal sinus rhythm (for at least 60 seconds) at any time within 24 hours after initiation of the intravenous infusion of tedisamil versus placebo. • The percentage of patients converted to normal sinus rhythm (for at least 60 seconds) at any time within 24 hrs and remaining in sinus rhythm until 24 hours after initiation of the intravenous infusion of tedisamil versus placebo. • The percentage of patients converted to normal sinus rhythm (for at least 60 seconds) at any time within 2.5 hrs and remaining in sinus rhythm until 24 hours after initiation of the intravenous infusion of tedisamil versus placebo. • The time to conversion after the start of the infusion of tedisamil versus placebo. • The dose- and concentration-response relationships of tedisamil versus placebo.\nThe intent-to-treat patient sample was analyzed for efficacy. All tests were two-sided and a p-value <0.05 was considered significant. Differences in percentages of conversion were compared among the treatment groups using the Pearson chi-square statistic. Safety analysis was conducted on the safety patient sample. Numbers and percentages of patients with adverse events were calculated for each treatment group, using MedDRA preferred terms and body systems. Descriptive statistics were summarized by treatment group for changes from baseline in QT, heart rate and blood pressure. […]", "key": {"[1]": {"settings": "0.4 mg/kg iv two-step 30 minute infusion"}, "[2]": {"settings": "0.6 mg/kg iv two-step 30 minute infusion"}}, "data": [{"smiles": "C1CCC2(C1)C1CN(CC3CC3)CC2CN(CC2CC2)C1", "note": "[Tedisamil, N,N′-dicyclopropylmethyl-9,9-tetramethylene-3,7-diazabicyclo[3,3,1]nonane]", "values": [{"measurement": "Conversion to NSR at any time within 2.5 hrs after the start of infusion (patients converted out of total)", "setting": "[1]", "result": "1 out of 9"}, {"measurement": "Conversion to NSR at any time within 2.5 hrs after the start of infusion (percentage of patients)", "setting": "[1]", "result": "(11%)"}, {"measurement": "Conversion to NSR at any time within 2.5 hrs and remaining in NSR until 2.5 hrs after the start of infusion (patients out of total)", "setting": "[1]", "result": "1 out of 9"}, {"measurement": "Conversion to NSR at any time within 2.5 hrs and remaining in NSR until 2.5 hrs after the start of infusion (percentage of patients)", "setting": "[1]", "result": "(11%)"}, {"measurement": "Conversion to NSR at any time within 2.5 hrs and remaining in NSR until 24 hrs after the start of infusion (patients out of total)", "setting": "[1]", "result": "1 out of 7"}, {"measurement": "Conversion to NSR at any time within 2.5 hrs and remaining in NSR until 24 hrs after the start of infusion (percentage of patients)", "setting": "[1]", "result": "(14%)"}, {"measurement": "Conversion to NSR at any time within 24 hrs after the start of infusion (patients out of total)", "setting": "[1]", "result": "2 out of 7"}, {"measurement": "Conversion to NSR at any time within 24 hrs after the start of infusion (percentage of patients)", "setting": "[1]", "result": "(29%)"}, {"measurement": "Conversion to NSR at any time within 24 hrs and remaining in NSR until 24 hrs after the start of infusion (patients out of total)", "setting": "[1]", "result": "2 out of 7"}, {"measurement": "Conversion to NSR at any time within 24 hrs and remaining in NSR until 24 hrs after the start of infusion (percentage of patients)", "setting": "[1]", "result": "(29%)"}, {"measurement": "Conversion to NSR at any time within 2.5 hrs after the start of infusion (percentage of patients)", "setting": "0.4 mg/kg iv two-step 30 minute infusion, listed as tedisamil", "result": 11, "unit": "%"}, {"measurement": "Conversion to NSR at any time within 2.5 hrs after the start of infusion (patients converted out of total)", "setting": "[2]", "result": "3 out of 11"}, {"measurement": "Conversion to NSR at any time within 2.5 hrs after the start of infusion (percentage of patients)", "setting": "[2]", "result": "(27%)"}, {"measurement": "Conversion to NSR at any time within 2.5 hrs and remaining in NSR until 2.5 hrs after the start of infusion (patients out of total)", "setting": "[2]", "result": "3 out of 11"}, {"measurement": "Conversion to NSR at any time within 2.5 hrs and remaining in NSR until 2.5 hrs after the start of infusion (percentage of patients)", "setting": "[2]", "result": "(27%)"}, {"measurement": "Conversion to NSR at any time within 2.5 hrs and remaining in NSR until 24 hrs after the start of infusion (patients out of total)", "setting": "[2]", "result": "3 out of 7"}, {"measurement": "Conversion to NSR at any time within 2.5 hrs and remaining in NSR until 24 hrs after the start of infusion (percentage of patients)", "setting": "[2]", "result": "(43%)"}, {"measurement": "Conversion to NSR at any time within 24 hrs after the start of infusion (patients out of total)", "setting": "[2]", "result": "3 out of 7"}, {"measurement": "Conversion to NSR at any time within 24 hrs after the start of infusion (percentage of patients)", "setting": "[2]", "result": "(43%)"}, {"measurement": "Conversion to NSR at any time within 24 hrs and remaining in NSR until 24 hrs after the start of infusion (patients out of total)", "setting": "[2]", "result": "3 out of 7"}, {"measurement": "Conversion to NSR at any time within 24 hrs and remaining in NSR until 24 hrs after the start of infusion (percentage of patients)", "setting": "[2]", "result": "(43%)"}, {"measurement": "Conversion to NSR at any time within 2.5 hrs after the start of infusion (percentage of patients)", "setting": "0.6 mg/kg iv two-step 30 minute infusion, listed as tedisamil", "result": 27, "unit": "%"}, {"measurement": "Conversion to NSR at any time within 2.5 hrs after start of infusion (converted/total)", "setting": "Female, 0.4 mg/kg", "result": "0/2"}, {"measurement": "Conversion to NSR at any time within 2.5 hrs after start of infusion (%)", "setting": "Female, 0.6 mg/kg", "result": 33.3, "unit": "%"}, {"measurement": "Conversion to NSR at any time within 2.5 hrs after start of infusion (converted/total)", "setting": "Female, 0.6 mg/kg", "result": "2/6"}, {"measurement": "Conversion to NSR at any time within 2.5 hrs after start of infusion (%)", "setting": "Male, 0.4 mg/kg", "result": 14.3, "unit": "%"}, {"measurement": "Conversion to NSR at any time within 2.5 hrs after start of infusion (converted/total)", "setting": "Male, 0.4 mg/kg", "result": "1/7"}, {"measurement": "Conversion to NSR at any time within 2.5 hrs after start of infusion (%)", "setting": "Male, 0.6 mg/kg", "result": 20.0, "unit": "%"}, {"measurement": "Conversion to NSR at any time within 2.5 hrs after start of infusion (converted/total)", "setting": "Male, 0.6 mg/kg", "result": "1/5"}]}]}
